The values that follow come from PubChem BioAssay (NCI).

Among the test systems are NCI-H460 lung; KM12 colon; HCT-116 colon; K-562 leukemia; ACHN renal; NCI-H522 lung; HOP-62 NSCLC; A498 renal; OVCAR-3 ovarian; MALME-3M melanoma.
Common to all, as to assay: DTP human tumour cell line panel, 48 h

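Exposure lasted 48 hours, with cells grown in 96-well plates and compounds tested at five concentrations. TGI denotes the concentration required for complete inhibition of growth.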

As a reminder, the TGI is the concentration at which net growth stops. A low value points to more potent growth arrest. For `COC1=CC(=O)N(C)C(O)C1(C#N)OC1OC(CO)C(O)C(O)C1O` (stereo not drawn), the TGI in the assay on NCI-H460 lung was over 100 µM; with KM12 colon, over 100 µM; in the assay on HCT-116 colon it was over 100 µM; in the assay on K-562 leukemia it was over 10 µM; in the assay on ACHN renal, over 100 µM; in the assay on NCI-H522 lung, over 100 µM. Besides, the total growth inhibition concentration (TGI) in the assay on HOP-62 NSCLC, in the assay with A498 renal and in the assay with OVCAR-3 ovarian was over 100 µM each time.

For the molecule `CC1CCC2(OC1)OC1C(O)C3C4CCC5CC(OC6OC(CO)C(OC7OC(CO)C(O)C(OC8OCC(O)C(O)C8O)C7OC7OC(CO)C(O)C(OC8OC(CO)C(O)C(O)C8O)C7O)C(O)C6O)C(O)CC5(C)C4CCC3(C)C1C2C` (stereo not drawn), the TGI in the assay on NCI-H460 lung is 3.35 µM; in the assay with KM12 colon, 4.77 µM; in the assay with HCT-116 colon, 3.36 µM; in the assay on K-562 leukemia it was over 100 µM; with ACHN renal, 3.08 µM; in the assay with NCI-H522 lung, 3.79 µM. Further, the total growth inhibition concentration (TGI) in the assay with HOP-62 NSCLC came out at 3.92 µM; in the assay with A498 renal it was 46.6 µM; in the assay with OVCAR-3 ovarian, 3.32 µM.

As to `COc1ccc(Oc2ccccc2N)cc1`, the TGI with NCI-H460 lung, in the assay with KM12 colon, in the assay with HCT-116 colon, in the assay with K-562 leukemia, in the assay with ACHN renal and in the assay with HOP-62 NSCLC was over 100 µM throughout. Besides, the TGI in the assay on A498 renal, with OVCAR-3 ovarian and in the assay with MALME-3M melanoma was over 100 µM throughout.

In the case of `Clc1cc(Cl)ncn1`, the concentration for total growth inhibition (TGI) in the assay on NCI-H460 lung, in the assay with KM12 colon, in the assay on HCT-116 colon, in the assay on K-562 leukemia, in the assay with ACHN renal and with NCI-H522 lung was over 100 µM each time. Moreover, the total growth inhibition concentration (TGI) with HOP-62 NSCLC, in the assay on OVCAR-3 ovarian and in the assay on MALME-3M melanoma was over 100 µM each time.

Turning to `O=C1NC(N2CCOCC2)=N/C1=C\c1ccc(O)cc1`, the total growth inhibition concentration (TGI) with KM12 colon, in the assay on HCT-116 colon, in the assay with ACHN renal, in the assay on NCI-H522 lung, with HOP-62 NSCLC and in the assay on OVCAR-3 ovarian was over 100 µM each time. Further, the TGI in the assay on MALME-3M melanoma is over 100 µM.

As for `[N-]=[N+]=NCC(O)Cn1cnc2c(NC(=O)c3ccccc3)ncnc21` (stereo not drawn), the TGI in the assay on NCI-H460 lung, with KM12 colon, in the assay on HCT-116 colon, with K-562 leukemia, with ACHN renal and with NCI-H522 lung was over 100 µM each time. The TGI in the assay on HOP-62 NSCLC, in the assay with A498 renal and in the assay with MALME-3M melanoma was over 100 µM throughout.

On to `C#CCOC(=O)c1ccc(OC(C)=O)cc1`, for which the TGI with NCI-H460 lung, in the assay with KM12 colon, in the assay with HCT-116 colon, with K-562 leukemia, in the assay on ACHN renal and in the assay with NCI-H522 lung was over 100 µM throughout. Moreover, the TGI in the assay with HOP-62 NSCLC, in the assay with A498 renal and in the assay on OVCAR-3 ovarian was over 100 µM in each case.

As to `C[C@H](C1CC2(C)OC2(C)C(=O)O1)[C@H]1CC[C@H]2[C@@H]3[C@@H]4O[C@@H]4[C@@]4(O)CC=CC(=O)[C@]4(C)[C@H]3CC[C@]12C` (stereo partly drawn), the TGI in the assay on NCI-H460 lung, in the assay on KM12 colon, with HCT-116 colon, with K-562 leukemia, with ACHN renal and in the assay on NCI-H522 lung was over 50 µM throughout. Moreover, the total growth inhibition concentration (TGI) in the assay on HOP-62 NSCLC, in the assay with A498 renal and with OVCAR-3 ovarian was over 50 µM in each case.

Take `Oc1ccc(Oc2cc3c(cc2Oc2ccc(O)cc2)-c2nc-3nc3[nH]c(nc4nc(nc5[nH]c(n2)c2cc(Oc6ccc(O)cc6)c(Oc6ccc(O)cc6)cc52)-c2cc(Oc5ccc(O)cc5)c(Oc5ccc(O)cc5)cc2-4)c2cc(Oc4ccc(O)cc4)c(Oc4ccc(O)cc4)cc32)cc1`: the total growth inhibition concentration (TGI) in the assay on NCI-H460 lung, with KM12 colon, in the assay with HCT-116 colon, in the assay with K-562 leukemia, in the assay with ACHN renal and with NCI-H522 lung was over 100 µM in each case. The concentration for total growth inhibition (TGI) is over 100 µM with HOP-62 NSCLC, over 100 µM in the assay on OVCAR-3 ovarian and 47 µM with MALME-3M melanoma.

Regarding `NC(=S)NC/C=C/Cl`, the concentration for total growth inhibition (TGI) in the assay on NCI-H460 lung, in the assay on KM12 colon, in the assay on HCT-116 colon, with K-562 leukemia, in the assay with ACHN renal and in the assay with NCI-H522 lung was over 100 µM throughout. For the same molecule, the TGI with HOP-62 NSCLC, in the assay on OVCAR-3 ovarian and in the assay on MALME-3M melanoma was over 100 µM each time.

For `Cc1cc(-c2nc3cccc(O)c3s2)ccc1N`, the TGI in the assay with NCI-H460 lung is over 100 µM; in the assay on KM12 colon, 36.7 µM; with HCT-116 colon, over 100 µM; in the assay with K-562 leukemia, over 100 µM; in the assay with ACHN renal, 49.9 µM; with HOP-62 NSCLC, over 100 µM. This molecule also registered a TGI in the assay with OVCAR-3 ovarian of over 100 µM.

As to `CC(C)=CCC[C@@H](C)C1=C(O)C(Nc2ccccc2I)=C(C)C(=O)C1=O`, the TGI is over 75 µM in the assay on NCI-H460 lung; 19.7 µM in the assay on KM12 colon; 34.8 µM in the assay with HCT-116 colon; over 66.8 µM with K-562 leukemia; 44 µM with ACHN renal; 23.1 µM in the assay on HOP-62 NSCLC. Further, the concentration for total growth inhibition (TGI) was 31.5 µM in the assay with A498 renal, over 47.5 µM in the assay on OVCAR-3 ovarian and 29.8 µM with MALME-3M melanoma.

Turning to `CCSC1=CC2(O)N(CCc3ccc(OC)c(OC)c3)C(=O)CC2(C(=O)OC)CC1=O` (stereo not drawn), the TGI in the assay on KM12 colon is 33.4 µM; in the assay on HCT-116 colon it was 32.1 µM; with K-562 leukemia, over 100 µM; in the assay on ACHN renal it was over 100 µM; in the assay on HOP-62 NSCLC, 34.7 µM; in the assay with A498 renal, over 100 µM. Moreover, the total growth inhibition concentration (TGI) in the assay with OVCAR-3 ovarian came to 33.6 µM.

Take `CCOC(=O)c1cc(Br)c(-c2onc(C)c2Br)[nH]1`: the TGI is over 100 µM in the assay on NCI-H460 lung; over 100 µM with KM12 colon; over 100 µM in the assay with HCT-116 colon; over 100 µM with K-562 leukemia; 49.9 µM with HOP-62 NSCLC; over 100 µM in the assay on A498 renal. Also, the total growth inhibition concentration (TGI) in the assay on OVCAR-3 ovarian and with MALME-3M melanoma was over 100 µM each time.

Regarding `COc1cc(N(CCC#N)CCC#N)ccc1/C=N\NC(=O)c1ccc(C)cc1`, the concentration for total growth inhibition (TGI) in the assay with NCI-H460 lung, in the assay with KM12 colon, in the assay with HCT-116 colon, in the assay with K-562 leukemia, with ACHN renal and with NCI-H522 lung was over 100 µM throughout. The concentration for total growth inhibition (TGI) with HOP-62 NSCLC, in the assay with OVCAR-3 ovarian and in the assay on MALME-3M melanoma was over 100 µM each time.
